How the values were obtained:
[1] = target: T1, recombinant human ACE2 (rhACE2) (Homo sapiens, UniProt Q9BYF1); test: fluorogenic peptide hydrolysis assay; type: biochemical
T1 construct: recombinant human ACE2 from Calbiochem for the constants
Excerpt: fluorogenic peptide hydrolysis assay on recombinant human ACE2 (rhACE2)

B38-CAP = test system: T2, B38-CAP; test: fluorogenic peptide hydrolysis assay; type: biochemical, Paenibacillus sp. B38; settings: pH 7.5 HEPES, 0.3 M NaCl, 0.01% Triton X-100, 37 °C, 30 min; fluorogenic ACE2 substrate
T2 construct: no tag mentioned
Excerpt: fluorogenic peptide hydrolysis assay on B38-CAP

T1 sequence (Q9BYF1 18-740 limits assumed): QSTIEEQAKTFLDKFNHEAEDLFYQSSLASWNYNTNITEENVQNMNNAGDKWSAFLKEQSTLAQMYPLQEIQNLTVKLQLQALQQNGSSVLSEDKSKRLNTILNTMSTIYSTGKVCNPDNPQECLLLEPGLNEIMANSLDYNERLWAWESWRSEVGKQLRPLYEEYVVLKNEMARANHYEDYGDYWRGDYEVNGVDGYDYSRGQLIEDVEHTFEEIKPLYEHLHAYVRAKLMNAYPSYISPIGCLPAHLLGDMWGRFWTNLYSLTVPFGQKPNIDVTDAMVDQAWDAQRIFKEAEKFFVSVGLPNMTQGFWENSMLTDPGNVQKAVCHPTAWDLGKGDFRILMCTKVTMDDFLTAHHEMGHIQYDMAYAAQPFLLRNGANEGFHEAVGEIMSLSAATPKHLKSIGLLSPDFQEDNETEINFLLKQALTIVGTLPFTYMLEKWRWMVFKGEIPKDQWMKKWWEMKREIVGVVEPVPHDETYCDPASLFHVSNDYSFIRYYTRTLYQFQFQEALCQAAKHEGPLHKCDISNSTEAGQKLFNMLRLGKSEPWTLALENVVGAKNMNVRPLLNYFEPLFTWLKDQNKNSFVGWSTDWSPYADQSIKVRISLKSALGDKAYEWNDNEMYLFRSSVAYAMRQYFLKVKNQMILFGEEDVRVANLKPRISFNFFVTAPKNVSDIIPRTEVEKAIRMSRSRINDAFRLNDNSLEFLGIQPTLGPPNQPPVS

SMILES: CC(C)C[C@H](N[C@@H](Cc1cncn1Cc1cc(Cl)cc(Cl)c1)C(=O)O)C(=O)O [MLN-4760]
- IC50 [1]: 0.34 ± 0.0501 nM
- IC50 (B38-CAP): 0.71 ± 0.173 nM
